In article PMC2119975 (The Journal of Cell Biology, 1994):

Key:
[1] = system: HT1080 human fibrosarcoma cells; experiment: Cell adhesion assay, HT1080 cells; assay type: cell-based; details: Fig. 7 B; coating and inhibitor 100 μM; EDTA 2 mM; cells preincubated
[2] = system: type II alveolar cells; experiment: Alveolar inhibition studies on gelled BMS; assay type: cell-based, rat; details: Fig. 6; cells preincubated with peptide, up to 700 μM; day five; n = 9

Molecule | Inhibition of HT1080 cell adhesion to SN-peptide [1] | Effect of tryptic peptides of SN-peptide on alveolar formation [2]
O=C(O)CN(CCN(CC(=O)O)CC(=O)O)CC(=O)O [EDTA] | inhibited | 
FGNMGS |  | minimal
WHSIYITR |  | partial
